The target in this assay is T1, hOX2R (Homo sapiens, UniProt O43614).
T1 construct: expressed in transfected cells; host or cells: CHO cells (G418 selection)
T1 sequence (O43614 1-444): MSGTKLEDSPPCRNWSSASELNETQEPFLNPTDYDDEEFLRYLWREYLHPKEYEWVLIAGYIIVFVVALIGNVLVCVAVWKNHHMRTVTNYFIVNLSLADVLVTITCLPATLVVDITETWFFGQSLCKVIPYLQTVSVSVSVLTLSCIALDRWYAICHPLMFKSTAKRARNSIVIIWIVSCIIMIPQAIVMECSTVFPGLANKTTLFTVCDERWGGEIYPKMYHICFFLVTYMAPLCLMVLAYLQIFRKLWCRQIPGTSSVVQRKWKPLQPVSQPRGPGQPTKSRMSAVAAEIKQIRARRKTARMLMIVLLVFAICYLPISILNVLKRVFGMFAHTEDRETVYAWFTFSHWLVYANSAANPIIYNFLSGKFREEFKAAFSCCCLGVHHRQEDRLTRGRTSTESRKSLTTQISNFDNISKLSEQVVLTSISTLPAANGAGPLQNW
The assay is described as follows: hOX2R IPone assay (orexin receptor agonism). In kind it is cell-based. Particulars: IPone readout; for hOX2R_Ipone max %act: maximal activation; for EC50: orexin receptor agonist, read-out: hOX2R_IPone EC50.

The results in this text go back to US12686690B2, “Macrocyclic urea orexin receptor agonists” (Merck Sharp & Dohme LLC, priority 2020, dated 2026).

By EC50 is commonly meant the concentration that produces a half-maximal response. For the compound `CCN1C(=O)NC(CC2CCC2)CCCCCOc2nc(cn3ccnc23)-c2cc(ncc2OC)[C@H]1C` (single isomer, unassigned) [Example 61B], the hOX2R_Ipone max %act came out at 100.9% and the EC50 amounted to 1.3 nM.
For `CCN1C(=O)NC(CCC(C)F)CCCCCOc2nc(cn3ccnc23)-c2cc(ncc2OC)[C@H]1C` (single isomer, unassigned) [Example 72B] the same measures were 102.7% and 0.7 nM.
For `CCN1C(=O)NC(CC2CCOC2)CCCCCOc2nc(cn3ccnc23)-c2cc(ncc2OC)[C@H]1C` (single isomer, unassigned) [Example 67A], the hOX2R_Ipone max %act is recorded as 99.8% and the concentration for a half-maximal effect (EC50) turned out to be 9.6 nM.
For `C[C@@H]1c2cc(c(F)cn2)-c2nc(c3nccn3n2)OCCCCCC(CCC(F)F)NC(=O)N1C1CC1` (stereo partly drawn) [Example 205, (3R,E)-4-cyclopropyl-7-(3,3-difluoropropyl)-25-fluoro-3-methyl-13-oxa-4,6-diaza-1(2,4)-imidazo[2,1-f] [1,2,4] triazina-2(4,2)-pyridinacyclo-tridecaphan-5-one] the same measures were 104.8% and 2.39 nM.
The like results for `CCN1C(=O)N[C@@H](CCC(F)(F)F)CCCCCOc2nc(cn3ccnc23)-c2nc(ncc2C)[C@H]1C` [Example 93B, (12R,16R)-13-ethyl-8,12-dimethyl-16-(3,3,3-trifluoro-propyl)-12,13,16,17, 18,19,20,21-octa-hydro-6,23:11,7-di(azeno)imidazo[2,1-c][1,4,10,13,15]oxatet-raazacyclohenicosin-14(15H)-one] were, in that order, 100.6% and 1.8 nM.
The like results for `CCN1C(=O)NC(CCC(C)(C)F)CCCCCOc2nc(cn3ccnc23)-c2cc(ncc2OC)[C@H]1C` (single isomer, unassigned) [Example 71A] were, in that order, 100.5% and 4.2 nM.
As for `CCN1C(=O)N[C@@H](CCC(F)(F)F)CCCCCOc2nc(cn3ncnc23)-c2cc(ncc2OC)[C@H]1C` [Example 82, (12R,16R)-13-ethyl-8-methoxy-12-methyl-16-(3,3,3-tri-fluoropropyl)-12,13, 16,17,18,19,20,21-octahydro-6,23-(azeno)-11,7-(metheno)[1,2,4]tria-zolo[5,1-c][1,4,10,13, 15]oxatetraazacyclo-henicosin-14(15H)-one], the hOX2R_Ipone max %act came to 99.62% and the EC50 was determined as 2.2 nM.
Take `CCN1C(=O)NC(C2CCOCC2)CCCCCOc2nc(cn3ccnc23)-c2cc(ncc2OC)[C@H]1C` (single isomer, unassigned) [Example 68A]: the hOX2R_Ipone max %act is 100.1% and the EC50 stood at 38.4 nM.
For `CCN1C(=O)NC(CCC(C)(F)F)CCCCCOc2nc(c(C)n3ncnc23)-c2cc(ncc2OC)C1C` [Example 172, (3R,7R,E)-7-(3,3-difluorobutyl)-4-ethyl-25-methoxy-15,3-dimethyl-13-oxa-4,6-diaza-1(6,8)-[1,2,4]triazolo[1,5-a]pyrazina-2(4,2)-pyridinacyclotridecaphan-5-one] the same measures were 101% and 7.2 nM.
The like results for `CCN1C(=O)NC(CCCC(F)F)CCCCCOc2nc(cn3ccnc23)-c2cc(ncc2OC)[C@H]1C` (stereo partly drawn) [Example 184, (3R,E)-7-(4,4-difluorobutyl)-4-ethyl-25-methoxy-3-methyl-13-oxa-4,6-diaza-1(6,8)-imidazo[1,2-a]pyrazina-2(4,2)-pyridinacyclotridecaphan-5-one] were, in that order, 101.1% and 0.78 nM.
The like results for `CCN1C(=O)NC(c2nc(C)cs2)CCCCCOc2nc(cn3ccnc23)-c2cc(ncc2OC)[C@H]1C` (stereo partly drawn) [Example 218, (3R,E)-4-ethyl-2^5-methoxy-3-methyl-7-(4-methylthiazol-2-yl)-13-oxa-4,6-diaza-1(6,8)-imidazo[1,2-a]pyrazina-2(4,2)-pyridinacyclotridecaphan-5-one] were, in that order, 102.4% and 0.9 nM.
In the case of `CCN1C(=O)NC(C2CCOCC2)CCCCCOc2nc(cn3ccnc23)-c2cc(ncc2OC)[C@H]1C` (single isomer, unassigned) [Example 68B], the hOX2R_Ipone max %act turned out to be 101.5% and the EC50 was 1.5 nM.
Regarding `CCN1C(=O)N[C@@H](CCC(F)(F)F)CCCCCOc2nc(cn3ccnc23)-c2cc(C)nc(c2)[C@H]1C` [Example 107B, (12R,16R)-13-ethyl-9,12-dimethyl-16-(3,3,3-trifluoropropyl)-12,13,16,17,18,19,20, 21-octahydro-6,23-(azeno)-11,7-(metheno)imidazo[2,1-c][1,4,10,13,15] oxatetraazacycloheni-cosin-14(15H)-one], the hOX2R_Ipone max %act is on record as 100.1% and the EC50 was determined as 2.4 nM.
For `CCN1C(=O)N[C@@H](CCC(F)(F)F)CCCCCOc2nc(cn3cc(C)nc23)-c2cc(nc3ccoc23)C1C` (single isomer, unassigned) [Example 75B] the same measures were 101.4% and 6 nM.
For the compound `CCN1C(=O)NC(CC2CCC2)CCCCCOc2nc(cn3ccnc23)-c2cc(ncc2OC)[C@H]1C` (single isomer, unassigned) [Example 61A], the hOX2R_Ipone max %act was determined as 100.3% and the EC50 is 34.6 nM.
